Laboratory results taken from US9937179B2, “Combined treatment for cancer resistant to an epidermal growth factor receptor kinase inhibitor” (Pre Clinical Oncology Services Ltd., priority 2014, dated 2018).
Entries after “also recorded” stand apart in the source; their conditions may differ.

Experiments:
[1] = tested on: HCC827 subcutaneous xenograft; details: s.c. HCC827 tumours, n=5/group, Erlotinib 25 mg/kg po QD
Description: (§1) Tumour measurements and body weights were taken 3 times weekly and treatment initiated when the tumours reached a mean volume of ˜200 mm^3 (n=5 per group).
(§2) Mice were anaesthetised and transported to the SARRP where CBCT (cone beam computed tomography) images were acquired. Using the MuriSlice software the isocenter of the tumour was identified and aligned with the central axis of the beam. […] A tolerability was performed initially to evaluate 3 Gy/day×5 days for 2 week.

[2] = tested on: HCC827-ER1 subcutaneous xenograft; details: s.c. HCC827-ER1 tumors, n=5/group
Description: as §1, §2

SMILES | effect on tumor volume, drug alone [1] | tumor growth inhibition compared with vehicle/control ([2]; drug alone, p<0.001, Erlotinib 25 mg/kg po QD) [%] | tumor regression, drug combined with irradiation [2] | tumor regression, drug alone ([2]; drug alone)
C[C@@H](Oc1cc(-c2cnn(C3CCNCC3)c2)cnc1N)c1c(Cl)ccc(F)c1Cl [Crizotinib, 3-[(1R)-1-(2,6-dichloro-3-fluorophenyl)ethoxy]-5-(1-piperidin-4-ylpyrazol-4-yl)pyridin-2-amine] | no effect | ~60 | tumour regression was restored; also recorded: tumor regression was restored | –
C#Cc1cccc(Nc2ncnc3cc(OCCOC)c(OCCOC)cc23)c1 [Erlotinib, N-(3-ethynylphenyl)-6,7-bis(2-methoxyethoxy) quinazolin-4-amine] | – | – | tumour regression was restored; also recorded: tumor regression was restored | no tumour regression; also recorded: no tumor regression
